In data set [1] the test system is gastrointestinal mucosa. As to conditions: male, Wistar, rat, in vivo, 6 h. On the procedure:
Gastric lesions induced by administration of the compounds of the invention in the confront of the corresponding drug precursor.
The animals have been sacrificed 6 hours after the administration. The gastrointestinal mucosa has been removed and inspected. The incidence of the gastrointestinal damage has been evaluated as described in experiment F1.

For data set [2], the system named is gastrointestinal mucosa. As to conditions: rat, in vivo, po.
The test system of data set [3] is gastrointestinal mucosa. As to conditions: rat, in vivo. On the procedure:
The animals (rats) are distributed in the following groups (no. 10 animals for group):
• 1° group: treatment: only carrier (aqueous suspension 1% w/v of carboxymethylcellulose, dose: 5 ml/Kg when the drug is administered by os, or a physiologic solution when parenterally administered, i.e. by subcutaneous, intraperitoneal, intravenous or intermuscular route), • 2° group: treatment: carrier as above defined+NEM, B) Groups Treated with the Drug: • group I: treatment: carrier+drug, • group II: treatment: carrier+drug+NEM.
The administration routes are those known for the drug, and can be the oral or subcutaneous, intraperitoneal, intravenous or intramuscular route.
The animals are sacrificed after 24 hours and then one proceeds to the evaluation of the damage to the gastrointestinal mucosa.
Test 1—experimental model in vivo with N-ethylmaleimide (NEM): study of the gastric tolerability of some drugs screened as precursors of the compounds of the invention.
The animals (rats, weight about 200 g) are distributed in the following groups (No. 10 animals for group):
• 1° group: treatment: only carrier (aqueous suspension 1% w/v of carboxymethylcellulose, dose: 5 ml/Kg when the drug is administered by os, physiologic solution when by parenteral route), • 2° group: treatment: carrier+NEM, B) Groups Administered with Each Drug: • group I: treatment: carrier+drug, • group II: treatment: carrier+drug+NEM.
The drug is administered one hour later, in suspension in the carrier. Animals are sacrificed after 24 hours and evaluation of the damage to the gastrointestinal mucosa is made by counting the number of rats, inside each group, with lesions to the stomach at a visual inspection. The total number of said rats is then divided by the total number of rats of the group and multiplied by 100.

Data set [4] deals with human endothelial cells of the umbilical vein. As to the kind of experiment: Test 2 (CIP): apoptosis (DNA fragmentation) induced by cumene hydroperoxide in endothelial cells. Format: cell-based. As to conditions: drug 10^-4 M; CIP 5 mM. Here is the method:
Test 2 (CIP): Protection parameter of endothelial cell against the oxidative stress induced by cumene hydroperoxide (CIP).
Human endothelial cells of the umbilical vein are prepared according to an usual standard procedure. Fresh umbilical veins are filled with a 0.1% by weight collagenase solution and incubated at 37° C. for 5 minutes.
The cells are collected from the perfusate by centrifugation and harvested in culture flasks T-75, pretreated with human fibronectin. The cells are then harvested in the same medium, further added with 10 ng/ml of bovine hypothalamic growth factor. When the cells of the primary cell culture (i.e. that directly obtained from ex-vivo) form a single layer of confluent cells (about 8,000,000 cells/flask), the culture is stopped and the layers washed and trypsinized. The cellular suspensions are transferred into the wells of a cell culture plate having 24 wells, half of which is then additioned with the same culture medium containing the drug at a 10^−4M concentration, and harvested in a thermostat at 37° C. at a constant moisture. Only the cells coming from said first sub-cultures are used for the experiments with cumene hydroperoxide (CIP).
Before starting the test, the cellular culture medium is removed and the cellular layers are carefully washed with a physiologic solution at a temperature of 37° C. The wells of the culture plate are then incubated for one hour with CIP at a 5 mM concentration in the culture medium. […] 5 replicates for each sample are carried out.
Human endothelial cells of the umbilical vein are prepared according to a standard method. Fresh umbilical veins are filled with a collagenase solution 0.1% by weight and incubated at 37° C. for 5 minutes.
The cells are collected from the perfusate by centrifugation at 800 rpm and harvested in culture flasks T-75, pretreated with human fibronectin. Cells are then harvested in the same medium, added with bovine hypothalamic growth factor (100 ng/ml). When the cells of the primary cell culture (the cells directly removed from ex-vivo umbilical vein) form a single layer of confluent cells (about 8,000,000 cells/flask), harvesting is stopped and the layers are washed and trypsinized. The cellular suspensions are transferred into wells of a culture plate having 24 wells, half of said wells being added with the same culture medium containing the drug at a 10^−4M concentration, and harvested in a thermostat at 37° C. at a constant moisture (90%), CO2=5%. When the drug is not soluble in the culture medium, it is formerly dissolved in a small amount of dimethylsulphoxide. The maximum amount of dimethylsulphoxide which can be added to the culture medium is 0.5%. Only the cells coming from these first subcultures are used for the tests with cumene hydroperoxide (CIP).
Before starting the test, the cellular culture medium is removed and the cellular layers are carefully washed with a standard physiologic solution buffered with phosphate 0.1 M pH 7.0, at the temperature of 37° C. The content of each well is then incubated for one hour with a CIP suspension in the culture medium at a 5 mM concentration. Evaluation of the cellular damage (apoptosis) is carried out by determining the percent variation of the DNA fragmentation in the cultures containing the drug+CIP with respect to the controls treated with CIP only. […] The fluorescence of each sample was determined on 5 replicates. Statistic evaluation has been made with t Student test (p<0.01).

For data set [5] the test system is unchanged. As to the kind of experiment: Experiment F6: apoptosis (DNA fragmentation) induced in endothelial cells by hydrogen peroxide. As to conditions: Endothelial cell, products 100 mmoles/l, hydrogen peroxide 200 mmoles/l, 18 hours, read-out: Apoptosis % (respect to the controls treated only with CIP). Format: cell-based. An excerpt: It has been Evaluated the Activity of Some of the Compounds Object of the Present Invention and of the Corresponding Precursor Drugs in Inhibiting DNA Degradation (Apoptosis) in Endothelial Cells Exposed to the Action of Hydrogen Peroxide (HP)
Hydrogen peroxide is a mild oxidant and is considered as an essential mediating agent in pathologies associated with oxidative stress (B. Halliwell, J. Gutteridge “Free Radicals in Biology and Medicine”, page 416, 1993). Therefore the pharmacological activity of compounds to be used under oxidative stress conditions is evaluated through their capability of neutralizing the cytolesive effects of the hydrogen peroxide (B. Halliwell, J. Gutteridge “Free Radicals in Biology and Medicine”, page 416, 1993).
The method described by Herman et Al. (Herman C., Zeiner M. A., Dimmeler S., Arterioscler. Thromb. Vasc. Biol. 17 (12), 3588-82, 1997).
Human endothelial cells of the umbilical vein are prepared according to a standard method. Fresh umbilical veins, just removed, are filled with a solution of collagenase at 0.1% and incubated at 37° C. for 5 minutes.
Subsequently the veins are perfused with medium M 199 (GIBCO, Grand Island, N.Y.) pH 7.4 containing 20% of human serum. The cells are collected from the perfusate by centrifugation at 800 rpm and harvested in culture flasks T-75, pretreated with human fibronectin. […]

Where two headings read alike, the source gives them in different places.

Consider `CN(CCOC(=O)Cc1ccccc1Nc1c(Cl)cccc1Cl)CCO[N+](=O)[O-]` [Example 14], for which the Gastropathy % incidence in data set [1] is listed as 0%; in data set [2], 20%.

`Nc1c2c(nc3ccccc13)CCCC2` [Tacrine, tacrine]: in data set [3], the “Gastro-enteropathy (% incidence) without NEM” value turned out to be 0% and the “gastrointestinal damages / gastric lesions in rats treated with NEM + drug (in words)” value is “showed gastric lesions”. Further, the “inhibition of apoptosis induced by CIP (in words, p<0.01)” value in data set [4] is recorded as “do not significantly inhibit apoptosis”. For the same compound, the activity at 100000 µM in data set [5] was found to be 8%. Also, in data set [1], the Gastropathy % incidence came out at 60%.

The values above are taken from patent publication US7759392B2, “Pharmaceutical compounds” (Nicox S.A., priority 1999, dated 2010).
